Results published in ChEMBL document CHEMBL1201862, “PubChem BioAssay data set” (2004).
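Assay format: 96-well plates, 48-hour exposure. GI50 = concentration required for 50% inhibition of growth.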 Calls of active or inactive are those of the source. Rule as the data show it: active = GI50 up to about 1.1 µM and inactive = higher.

How the values were obtained:
Assay in all cases: inhibition of tumour cell growth, NCI panel, 48 h
LOX IMVI = system: LOX IMVI
TK-10 = system: TK-10
U-251 = system: U-251
T47D = system: T47D
HOP-62 = system: HOP-62
NCI/ADR-RES = system: NCI/ADR-RES
NCI-H522 = system: NCI-H522
K562 = system: K562
A549 = system: A549
RPMI-8226 = system: RPMI-8226
OVCAR-4 = system: OVCAR-4
SR = system: SR
HCC 2998 = system: HCC 2998
PC-3 = system: PC-3
SW-620 = system: SW-620
A498 = system: A498
SNB-75 = system: SNB-75
NCI-H23 = system: NCI-H23

Measured: GI50

CC(C)(C)OC(=O)NCCc1ccc(N)cc1
inactive: LOX IMVI > 100 µM | TK-10 > 100 µM | U-251 30.8 µM | T47D 74.5 µM | HOP-62 > 100 µM | NCI/ADR-RES 32.4 µM | NCI-H522 > 100 µM | K562 66.5 µM | A549 > 100 µM | RPMI-8226 58.6 µM | OVCAR-4 > 100 µM | SR 55.6 µM | HCC 2998 > 100 µM | PC-3 > 100 µM | SW-620 > 100 µM

N#Cc1nn(C2OC(COC(=O)c3ccccc3)C(OC(=O)c3ccccc3)C2OC(=O)c2ccccc2)c2nc[nH]c(=O)c12 (stereo not given)
inactive: A498 11.4 µM | TK-10 > 100 µM | U-251 62.5 µM | T47D 46.2 µM | HOP-62 90.2 µM | NCI/ADR-RES 66.4 µM | NCI-H522 36.9 µM | K562 35.7 µM | A549 39.6 µM | RPMI-8226 39.4 µM | OVCAR-4 38.3 µM | SR 30.9 µM | SNB-75 76 µM | HCC 2998 78.2 µM | PC-3 45.4 µM | NCI-H23 24.4 µM | SW-620 63.1 µM

COC(=O)[C@@H]1CN(C(=O)CCc2ccccc2)C(=O)N1C(=O)OCc1ccccc1
inactive: LOX IMVI > 100 µM | A498 > 100 µM | TK-10 > 100 µM | U-251 > 100 µM | T47D 38.5 µM | HOP-62 > 100 µM | NCI/ADR-RES > 100 µM | NCI-H522 > 100 µM | K562 > 100 µM | A549 > 100 µM | RPMI-8226 > 100 µM | OVCAR-4 > 100 µM | SR > 100 µM | SNB-75 > 100 µM | HCC 2998 > 100 µM | NCI-H23 > 100 µM | SW-620 > 100 µM

CC(=O)N1NC(c2ccccc2)=CC(=O)/C1=C/C(=O)c1ccccc1
inactive: LOX IMVI 40.9 µM | A498 > 100 µM | TK-10 48.8 µM | U-251 > 100 µM | T47D 39.3 µM | HOP-62 88.1 µM | NCI/ADR-RES 50.4 µM | NCI-H522 15.9 µM | K562 56 µM | A549 53.1 µM | RPMI-8226 31.3 µM | OVCAR-4 84.1 µM | SR 20.7 µM | HCC 2998 > 100 µM | PC-3 > 100 µM | NCI-H23 > 100 µM

CC1(C)[C@@H](Cn2cnc3c(O)nc(N)nc32)CC[C@@]1(C)CO
inactive: LOX IMVI > 100 µM | A498 > 100 µM | TK-10 > 100 µM | U-251 > 100 µM | T47D > 100 µM | HOP-62 > 100 µM | NCI/ADR-RES > 100 µM | K562 > 100 µM | A549 > 100 µM | RPMI-8226 > 100 µM | OVCAR-4 > 100 µM | SNB-75 > 100 µM | HCC 2998 > 100 µM | PC-3 > 100 µM | SW-620 > 100 µM
